Drawing on BindingDB's records for doi:10.1021/jm00114a022 (Smithkline Beecham Pharmaceuticals Research and Development, 1991), this text covers Ki and IC50 for 32 compounds.

Where a SMILES comes first, the peptide text is derived from it. Bridges are numbered along the chain shown (N, C = ends). [ ]: non-standard residue; d: D form. NMeR = CN[C@@H](CCCNC(=N)N)C(=O)O; hArg = N=C(N)NCCCC[C@H](N)C(=O)O; Cit = NC(=O)NCCC[C@H](N)C(=O)O; Pen = CC(C)(S)[C@H](N)C(=O)O; Sar = CNCC(=O)O Some results are limits rather than exact numbers.

Broadly, the Ki is a dissociation constant, usually derived from enzyme kinetics or from competition with a known ligand. Higher therefore signals a looser hold on the target. The term IC50 denotes the concentration needed to halve the response being measured. Higher therefore signals weaker potency.

The first assay in a line: Inhibition of human washed platelet aggregation.
For the compound `CC(=O)N[C@H]1CSSC(C)(C)[C@@H](C(N)=O)NC(=O)[C@H](CC(=O)O)NC(=O)CNC(=O)[C@H](CCCN=C(N)N)N(C)C1=O` (Ac-C[NMeR]GD[Pen]-NH2; disulfide 1-5), the Ki was determined as 0.062 µM.

A short description of another assay: Inhibition of canine platelet-rich plasma agregation induced by ADP.
On to `CC(=O)N[C@@H](CCCNC(=N)N)C(=O)NCC(=O)N[C@H](CC(=O)N[C@@H](CO)C(N)=O)C(=O)O`, for which the IC50 was > 200 µM. `CC(=O)N[C@H](CCCCNC(=N)N)C(=O)NCC(=O)N[C@@H](CC(=O)O)C(=O)N[C@@H](CO)C(N)=O` yielded an IC50 of 68.2 µM.

In the case of `CC(=O)N[C@@H](CCCNC(=N)N)C(=O)NCC(=O)N[C@@H](CCC(=O)O)C(=O)N[C@@H](CO)C(N)=O`, the IC50 was > 200 µM. Same read-out and setting: the value for `CC(=O)N[C@@H]1C(=O)N[C@@H](CCCN=C(N)N)C(=O)NCC(=O)N[C@@H](CC(=O)O)C(=O)N[C@H](C(N)=O)CSSC1(C)C` was 7.97 µM; that for `CC(=O)N[C@@H](CCCNC(=N)N)C(=O)NCC(=O)N[C@@H](CC(=O)O)C(N)=O` was 138 µM; that for `CC(=O)N[C@H]1CSSC[C@@H](C(N)=O)NC(=O)[C@H](CC(=O)O)NC(=O)CNC(=O)[C@H](CCCN=C(N)N)NC(=O)CNC1=O` was 52 µM. Still for that read-out and setting: with `CC(=O)N[C@H]1CSSC[C@@H](C(N)=O)NC(=O)[C@H](CC(=O)O)NC(=O)CNC(=O)[C@H](CCCN=C(N)N)NC1=O` the figure was 16.2 µM; with `CC(=O)N[C@H]1CSSC(C)(C)[C@@H](C(N)=O)NC(=O)[C@H](CC(=O)O)NC(=O)CNC(=O)[C@H](CCCN=C(N)N)NC(=O)CNC1=O`, 11.4 µM. Compound `CC(=O)N[C@@H](CCCNC(=N)N)C(=O)NCC(=O)N[C@@H](CC(=O)O)C(=O)NCCc1ccccc1` returned an IC50 of 75.9 µM.

In turn, `CC(=O)N[C@H]1CSSC(C)(C)[C@@H](C(N)=O)NC(=O)[C@H](CC(=O)O)NC(=O)CN(C)C(=O)[C@H](CCCN=C(N)N)NC1=O` registered an IC50 of 73.4 µM. Still for that read-out and setting: the value for `CC(=O)N[C@@H]1C(=O)N(C)[C@@H](CCCN=C(N)N)C(=O)NCC(=O)N[C@@H](CC(=O)O)C(=O)N[C@H](C(N)=O)C(C)(C)SSC1(C)C` was 0.37 µM.

In turn, `CC(=O)N[C@H]1CSSC(C)(C)[C@@H](C(N)=O)NC(=O)[C@H](CC(=O)O)NC(=O)CNC(=O)[C@H](CCCCN)NC1=O` (Ac-CKGD[Pen]-NH2; disulfide 1-5) registered an IC50 of 55.3 µM. On the same count and under the same terms, the value for `CC(=O)N[C@H]1CSSC(C)(C)[C@@H](C(N)=O)NC(=O)[C@H](CC(=O)O)NC(=O)[C@H](C)NC(=O)[C@H](CCCN=C(N)N)NC1=O` (Ac-CRAD[Pen]-NH2; disulfide 1-5) was 200 µM; that for `CC(=O)N[C@H]1CSSC[C@@H](C(N)=O)NC(=O)[C@H](CO)NC(=O)[C@H](CC(=O)O)NC(=O)CNC(=O)[C@H](CCCN=C(N)N)NC1=O` (Ac-CRGDSC-NH2; disulfide 1-6) was 32.7 µM; that for `CC(=O)N[C@H]1CSSC(C)(C)[C@@H](C(N)=O)NC(=O)[C@H](CC(=O)O)NC(=O)CNC(=O)[C@H](CCCN=C(N)N)N(C)C1=O` (Ac-C[NMeR]GD[Pen]-NH2; disulfide 1-5) was 0.355 µM.

Take `CC(=O)N[C@H]1CSSC(C)(C)[C@@H](C(N)=O)NC(=O)[C@H](CC(N)=O)NC(=O)CNC(=O)[C@H](CCCN=C(N)N)N(C)C1=O` (Ac-C[NMeR]GN[Pen]-NH2; disulfide 1-5): the IC50 is > 200 µM. On the same count and under the same terms, the value for `CC(=O)N[C@H]1CSSC(C)(C)[C@@H](C(N)=O)NC(=O)[C@H](CC(=O)O)NC(=O)CNC(=O)[C@H](CCCCN=C(N)N)NC1=O` (Ac-C[hArg]GD[Pen]-NH2; disulfide 1-5) was 3.85 µM. In the case of `CC(=O)N[C@@H](Cc1cnc[nH]1)C(=O)NCC(=O)N[C@@H](CC(=O)O)C(=O)N[C@@H](CO)C(N)=O` (Ac-HGDS-NH2), the IC50 is > 200 µM.

Regarding `CC(=O)N[C@@H](CCCCN)C(=O)N[C@H]1CSSC(C)(C)[C@@H](C(=O)O)NC(=O)[C@H](CC(=O)O)NC(=O)CNC(=O)[C@H](C)NC1=O` (Ac-KCAGD[Pen]-OH; disulfide 2-6), the IC50 was > 200 µM. On the same count and under the same terms, the value for `CC(=O)N[C@@H](CCCCN)C(=O)NCC(=O)N[C@@H](CC(=O)O)C(=O)N[C@@H](CO)C(N)=O` (Ac-KGDS-NH2) was > 200 µM; that for `CC(=O)N[C@@H](CCCCN)C(=O)NCC(=O)N[C@@H](CCC(=O)O)C(=O)N[C@@H](CO)C(N)=O` (Ac-KGES-NH2) was > 200 µM.

Regarding `CC(=O)N[C@@H](CCCNC(=N)N)C(=O)N[C@@H](C)C(=O)N[C@@H](CC(=O)O)C(=O)N[C@@H](CO)C(N)=O` (Ac-RADS-NH2), the IC50 was > 200 µM.

In the case of `CCNC(=O)[C@H](CO)NC(=O)[C@H](CC(=O)O)NC(=O)CNC(=O)[C@H](CCCNC(=N)N)NC(C)=O` (Ac-RGDS-NHEt), the IC50 was > 200 µM. On to `CC(=O)N[C@@H](CCCNC(=N)N)C(=O)NCC(=O)N[C@@H](CC(=O)O)C(=O)N[C@H](C(N)=O)C(C)C` (Ac-RGDV-NH2), for which it took 55.5 µM to reach half-maximal inhibition (IC50).

Turning to `CC(=O)N[C@@H](CCCNC(=N)N)C(=O)NCC(=O)N[C@@H](CC(=O)O)C(=O)N[C@@H](Cc1ccc(O)cc1)C(N)=O` (Ac-RGDY-NH2), 102 µM corresponded to half-maximal inhibition (IC50). As for `CC(=O)N[C@@H](CCCNC(=N)N)C(=O)NCC(=O)N[C@@H](CC(N)=O)C(=O)N[C@@H](CO)C(N)=O` (Ac-RGNS-NH2), the IC50 was > 200 µM.

Consider `CC(=O)N[C@@H](CCCNC(=N)N)C(=O)N1CCC[C@H]1C(=O)N[C@@H](CC(=O)O)C(=O)N[C@@H](CO)C(N)=O` (Ac-RPDS-NH2), for which the IC50 was > 200 µM. Same read-out and setting: with `CC(=O)N[C@@H](CCCNC(=N)N)C(=O)N(C)CC(=O)N[C@@H](CC(=O)O)C(=O)N[C@@H](CO)C(N)=O` (Ac-R[Sar]DS-NH2) the figure was > 200 µM; with `CC(=O)N[C@@H](CCCNC(N)=O)C(=O)NCC(=O)N[C@@H](CC(=O)O)C(=O)N[C@@H](CO)C(N)=O` (Ac-[Cit]GDS-NH2), > 200 µM. Still for that read-out and setting: with `CC(=O)N[C@@H](Cc1c[nH]cn1)C(=O)N[C@@H](Cc1c[nH]cn1)C(=O)N[C@@H](CC(C)C)C(=O)NCC(=O)NCC(=O)N[C@@H](C)C(=O)N[C@@H](CCCCN)C(=O)N[C@H]1CSSC(C)(C)[C@@H](C(N)=O)NC(=O)[C@H](CC(=O)O)NC(=O)CNC(=O)[C@H](CCCN=C(N)N)NC1=O` [1N-[1-formyl-(1S)-ethylcarbamoylmethylcarbamoylmethyl]-2-[2-(1H-5-imidazolyl)-1-[2-(1H-5-imidazolyl)-1-methylcarboxamido-(1S)-ethylcarboxamido]-(1S)-ethylcarboxamido]-4-methyl-(2S)-pentanamide [4-Carbamoyl-16-(2,6-diamino-hexanoylamino)-13-(3-guanidino-propyl)-3,3-dimethyl-6,9,12,15-tetraoxo-1,2-dithia-5,8,11,14-tetraaza-cycloheptadec-7-yl]-acetic acid] the figure was 9.6 µM. For the compound “Ac-HHLGGAKQAGDV-OH [1N-[1-[5-amino-1-formyl-(1S)-pentylcarbamoyl]-(1S)-ethylcarbamoylmethylcarbamoylmethyl]-2-[2-(1H-5-imidazolyl)-1-[2-(1H-5-imidazolyl)-1-methylcarboxamido-(1S)-ethylcarboxamido]-(1S)-ethylcarboxamido]-4-methyl-(2S)-pentanamide 2-[1-[1-[1-amino-3-carbamoyl-(1S)-propylcarboxamido]-(1S)-ethylcarboxamidomethylcarboxamido]-2-carboxy-(1S)-ethylcarboxamido]-3-methyl-(2S)-butanoic acid]”, the IC50 was > 200 µM. On the same count and under the same terms, with Ac-RRGDF-NH2 the figure was 113 µM.
